# Literature values as cited in US20190151045A1, “Device and Methods for Disinfecting Dental Lines” (Toppen Medical Dental LLC, priority 2017, published 2019).
# Like-named read-outs stand apart in the source and are kept apart here.
# Settings: dissipates into molecular oxygen, 0.5 mg/L ozone in dental water line
compound,measurement,setting,value
O=[O+][O-] [ozone],half-life (t1/2) of ozone,,~20 min
same,half-life (t1/2) of ozone,listed as Ozone,about 20 min
